We go through three compounds from patent US10081632B2, “Substituted tetrahydropyrido[3′,2′:4,5]pyrrolo[1,2-α]pyrazine-2-carboxamides as RSK inhibitors” (Phoenix Molecular Designs, priority 2016, dated 2018).

Test [1] relates to T47D cells. Briefly: Monolayer growth inhibition, Alamar blue assay. It counts as cell-based, Human. The settings on record: Homo sapiens, T47D (ER/PR), 5 days, single dose on day 1. The source says: (§1) In all instances a single dose was given on day 1 of the experiment.
Background: Resazurin is reduced to fluorescent resorufin, in cell work by metabolically active cells.

In test [2] the test system is SUM149-PTXR cells. Briefly: Monolayer growth inhibition, Alamar blue assay. It counts as cell-based, Human. The settings on record: Homo sapiens; SUM149-PTXR (TNBC, BRCA Mutant), 5 days, single dose on day 1.
Excerpt: as §1

Test [3] relates to All cell lines. Briefly: Monolayer growth inhibition, crystal violet assay, range over all cell lines. It counts as cell-based. The settings on record: 120 h; range of IC50 over all cell lines of the table; read-out: IC50 Values - Crystal Violet (5 Days), Range, All. The source says: (§2) In all instances a single dose was given on day 1 of the experiment. […] Complete (100%) growth suppression was achievable with several of the compounds in multiple different cell lines.

For test [4], the system named is All cell lines. Briefly: Monolayer growth inhibition, Alamar blue assay, range over all cell lines. As to conditions: 120 h; range of IC50 over all cell lines of the table; read-out: IC50 Values - Alamar Blue (5 Days), Range, All. It is filed as cell-based.
Excerpt: as §1

Test [5] deals with JIMT-1 cells. Briefly: Monolayer growth inhibition, crystal violet assay. It is filed as cell-based. As to conditions: Homo sapiens, 5 days, single dose on day 1.
Excerpt: as §2

Test [6] deals with T47D cells. Briefly: Monolayer growth inhibition, crystal violet assay. It is filed as cell-based. The settings on record: Homo sapiens, T47D (ER/PR), 5 days, single dose on day 1.
Excerpt: as §2

Test [7] concerns HCC1937 cells. Briefly: Monolayer growth inhibition, crystal violet assay. It is filed as cell-based. The settings on record: Homo sapiens, 5 days, single dose on day 1.
Excerpt: as §2

The test system of test [8] is MDA-MB-468 cells. Briefly: Monolayer growth inhibition, crystal violet assay. It counts as cell-based. As to conditions: Homo sapiens, 5 days, single dose on day 1.
Excerpt: as §2

The subject of test [9] is JIMT-1 cells. Briefly: Monolayer growth inhibition, Alamar blue assay. It is filed as cell-based. As to conditions: Homo sapiens, 5 days, single dose on day 1.
Excerpt: as §1

Test [10] deals with 4T1 cells. Briefly: Monolayer growth inhibition, Alamar blue assay. It is filed as cell-based. The settings on record: Mus musculus, 5 days, single dose on day 1.
Excerpt: as §1

The subject of test [11] is MDA-MB-435 cells. Briefly: Monolayer growth inhibition, Alamar blue assay. It counts as cell-based. The settings on record: Homo sapiens, 5 days, single dose on day 1.
Excerpt: as §1

The subject of test [12] is SUM149 cells. Briefly: Monolayer growth inhibition, Alamar blue assay. As to conditions: Homo sapiens, 5 days, single dose on day 1. It is filed as cell-based.
Excerpt: as §1

For test [13], the system named is HCC1937 cells. Briefly: Monolayer growth inhibition, Alamar blue assay. It is filed as cell-based. As to conditions: Homo sapiens, 5 days, single dose on day 1.
Excerpt: as §1

In test [14] the test system is HCC1143 cells. Briefly: Monolayer growth inhibition, Alamar blue assay. It is filed as cell-based. As to conditions: Homo sapiens, 5 days, single dose on day 1.
Excerpt: as §1

The test system of test [15] is MDA-MB-231 cells. Briefly: Monolayer growth inhibition, Alamar blue assay. It counts as cell-based. As to conditions: Homo sapiens; MDA-MB-231 (TNBC), 5 days, single dose on day 1.
Excerpt: as §1

In test [16] the test system is PC3 cells. Briefly: Monolayer growth inhibition, Alamar blue assay. It is filed as cell-based. As to conditions: Homo sapiens, PC-3; PC3 (Prostate), 5 days, single dose on day 1.
Excerpt: as §1

Test [17] has as its system MDA-MB-468 cells. Briefly: Monolayer growth inhibition, Alamar blue assay. The settings on record: Homo sapiens, 5 days, single dose on day 1. It counts as cell-based.
Excerpt: as §1

For test [18], the system named is 4T1 cells. Briefly: Monolayer growth inhibition, crystal violet assay. It counts as cell-based. The settings on record: Mus musculus, 5 days, single dose on day 1.
Excerpt: as §1

The test system of test [19] is MDA-MB-435 cells. Briefly: Monolayer growth inhibition, crystal violet assay. It counts as cell-based. The settings on record: Homo sapiens; MDA-MB-435 (Melanoma), 5 days, single dose on day 1.
Excerpt: as §1

Test [20] deals with SUM149 cells. Briefly: Monolayer growth inhibition, crystal violet assay. The settings on record: Homo sapiens, 5 days, single dose on day 1. It is filed as cell-based.
Excerpt: as §1

For test [21], the system named is HCC1143 cells. Briefly: Monolayer growth inhibition, crystal violet assay. It counts as cell-based. As to conditions: Homo sapiens, 5 days, single dose on day 1.
Excerpt: as §1

In test [22] the test system is MDA-MB-231 cells. Briefly: Monolayer growth inhibition, crystal violet assay. It is filed as cell-based. As to conditions: Homo sapiens; MDA-MB-231 (TNBC), 5 days, single dose on day 1.
Excerpt: as §1

Test [23] relates to PC3 cells. Briefly: Monolayer growth inhibition, crystal violet assay. It is filed as cell-based. The settings on record: Homo sapiens, PC-3; PC3 (Prostate), 5 days, single dose on day 1.
Excerpt: as §1

The test system of test [24] is SUM149-PTXR cells. Briefly: Monolayer growth inhibition, crystal violet assay. It is filed as cell-based. As to conditions: Homo sapiens; SUM149-PTXR (TNBC, BRCA Mutant), 5 days, single dose on day 1.
Excerpt: as §1

Test [25] relates to 4T1 cells. Briefly: Soft agar growth inhibition assay. It counts as cell-based. As to conditions: Mus musculus, 4T1, 240 h, 4T1, 10 days; read-out: IC50 Values, 10 Days, Soft Agar. How it is done:
Two agar (Alfa Aesar) solutions (0.8% w/v and 0.4% w/v) were prepared in ultrapure water. The 0.8% agar solution was mixed in equal volumes with 2× media previously prepared from powder (Life Technologies) following the manufacturer's instructions and filter sterilized. The 0.8% agar and media solution was added to 24 well plates (Mandel Scientific) at 500 μl per well. The plates were placed in a humidified incubator at 37° C. with 5% CO2. Next, the 0.4% agar solution was mixed in equal volumes with 2× media. Breast cancer cell lines were added to this solution to achieve a final concentration of 2×10^4 cells per well and […] was added to each well on top of the bottom agar and media layer. […] The plates were returned to the incubator for 10-32 days, with a re-dosing of compounds or DMSO every 7 days. After 10-32 days, colonies were counted in 3 different fields of view for each well.
Representative compounds described herein were tested in the soft agar growth inhibition assay against the 4T1 breast cancer cell line.

The test system of test [26] is CD34+ cells. Briefly: Colony forming unit hematopoietic stem cell assay. As to conditions: Homo sapiens, Hematopoietic stem cell, 336 h, CD34+ HSC, 14 days; read-out: IC50 Values - 14 days, CFU Assay. It is filed as cell-based, human. How it is done: The hematopoietic colony forming cell assay was conducted based on a protocol outlined by StemCell Technologies. […] Following the addition of CD34^+ cells isolated from human cord blood or peripheral blood (StemCell Technologies) at a final concentration of 5×10^2 cells per dish, the tubes were vortexed and allowed to stand for 5 minutes at room temperature. Next, the MethoCult mixtures were dispensed into 35 mm dishes (Corning Incorporated) through blunt end needles (StemCell Technologies) and 5 ml syringes (BD Biosciences) at a volume of 1.1 ml per dish. The medium was evenly distributed across the surface of each dish by gentle tilting and rotation. The dishes were then placed in a 100 mm culture dish (Grenier Bio-One) containing additional 35 mm dishes with sterile water to maintain humidity. […] The number of myeloid and erythroid derived colonies in both the treated and control dishes were counted and compared.

Where [27] appears, read: HCC1937, HCC1937 (TNBC, BRCA Mutant).
Where [28] appears, read: SUM149, SUM149 (TNBC, BRCA Mutant).

Structures are written as SMILES.

By IC50 is commonly meant the concentration at which inhibition is half-maximal.

Regarding `C[C@@H]1CNC(=O)c2cc3ccc(NC(=O)c4cnn(Cc5cccc(N)c5)c4)nc3n21` [Compound 19, (R)-1-(3-aminobenzyl)-N-(9-methyl-6-oxo-6,7,8,9-tetrahydropyrido[3′,2′:4,5]pyrrolo[1,2-a]pyrazin-2-yl)-1H-pyrazole-4-carboxamide], the IC50 in test [1] is 13.5 ± 4.6 µM; in [2], 14.1 ± 4.3 µM; in [3], 7.4 to 34 µM; in test [4], 10.5 to 37.3 µM; in test [5] (JIMT-1 (HER2)), 34 ± 12.8 µM; in test [6], 7.7 ± 1.5 µM. The IC50 in [7] (HCC1937 (TNBC, BRCA Mutant)) amounted to 19.9 ± 8.7 µM; in test [8] (MDA-MB-468 (TNBC)), 7.4 ± 1 µM; in test [9] (JIMT-1 (HER2)), 37.3 ± 9 µM; in [10] (4T1 (TNBC)), 20.6 ± 2.5 µM; in test [11] (MDA-MB-435 (Melanoma)) it was 10.5 ± 2.2 µM; in [12] (SUM149 (TNBC, BRCA Mutant)), 15.8 ± 6.4 µM. The IC50 in test [13] (HCC1937 (TNBC, BRCA Mutant)) was found to be 16.6 ± 11.5 µM; in test [14] (HCC1143 (TNBC)), 11.5 ± 3.6 µM; in [15] it was 25.6 ± 1.5 µM; in [16], 17.1 ± 8.7 µM; in test [17] (MDA-MB-468 (TNBC)), 14.7 ± 4.1 µM; in [18] (4T1 (TNBC)), 15.8 ± 4.8 µM. Besides, the IC50 in test [19] was found to be 10.3 ± 3.5 µM; in test [20] (SUM149 (TNBC, BRCA Mutant)), 11.1 ± 3.9 µM; in [21] (HCC1143 (TNBC)), 13.8 ± 4.3 µM; in [22], 17.2 ± 1.9 µM; in test [23] it was 14.9 ± 6.6 µM; in [24] it was 13 ± 1.3 µM.

Consider `C[C@@H]1CNC(=O)c2cc3ccc(NC(=O)c4cnn(Cc5ccccc5)c4)nc3n21` [Compound 15, (R)-1-benzyl-N-(9-methyl-6-oxo-6,7,8,9-tetrahydropyrido[3′,2′:4,5]pyrrolo[1,2-a]pyrazin-2-yl)-1H-pyrazole-4-carboxamide], for which the IC50 in test [25] is 3.8 µM; in [1] (T47D), 7.8 ± 3.7 µM; in test [2], 9.2 ± 3 µM; in test [3], 5.9 to 21 µM; in test [4] it was 3.6 to 21.3 µM; in [5] (JIMT-1, JIMT-1 (HER2)) it was 11.2 ± 0.2 µM. The IC50 in [6] (T47D) turned out to be 8.5 ± 0.7 µM; in test [7] (setting [27]) it was 12 ± 0.2 µM; in test [8] (MDA-MB-468, MDA-MB-468 (TNBC)), 11.3 ± 0.7 µM; in test [9] (JIMT-1, JIMT-1 (HER2)) it was 8.3 ± 1.8 µM; in test [10] (4T1, 4T1 (TNBC)), 8.8 ± 2.1 µM; in [11] (MDA-MB-435, MDA-MB-435 (Melanoma)), 13.7 ± 3.4 µM. In addition, the IC50 in [12] (setting [28]) was found to be 11.7 ± 2.8 µM; in [13] (setting [27]), 9.7 ± 3.9 µM; in test [14] (HCC1143, HCC1143 (TNBC)) it was 3.6 ± 2.7 µM; in test [16] it was 11.5 ± 3.4 µM; in test [17] (MDA-MB-468, MDA-MB-468 (TNBC)), 13.3 ± 4.1 µM; in test [18] (4T1, 4T1 (TNBC)), 6.9 ± 3 µM. Besides, the IC50 in [19] is 8.2 ± 2.5 µM; in [20] (setting [28]), 9.9 ± 3.1 µM; in test [21] (HCC1143, HCC1143 (TNBC)), 12.6 ± 3.4 µM; in test [23], 5.9 ± 1.4 µM; in test [24] it was 8.8 ± 2.2 µM; in [26] it was 23.8 µM.

In the case of `C[C@@H]1CNC(=O)c2cc3ccc(C(=O)Nc4cnn(Cc5ccccc5N)c4)nc3n21` [Compound 17, (R)—N-(1-(2-aminobenzyl)-1H-pyrazol-4-yl)-9-methyl-6-oxo-6,7,8,9-tetrahydropyrido[3′,2′:4,5]pyrrolo[1,2-a]pyrazine-2-carboxamide], the IC50 in test [1] was 5.7 ± 2.1 µM; in test [2], 4.2 ± 1.5 µM; in test [3], 1 to 8.9 µM; in [4] it was 1.2 to 12.6 µM; in [5] (JIMT-1 (HER2)) it was 7.4 ± 2.5 µM; in test [6] it was 6.7 ± 1.6 µM. Besides, the IC50 in test [7] (HCC1937 (TNBC, BRCA Mutant)) stood at 7.3 ± 3.2 µM; in [8] (MDA-MB-468 (TNBC)), 1.6 ± 0.7 µM; in test [9] (JIMT-1 (HER2)), 12.6 ± 5.9 µM; in [10] (4T1 (TNBC)), 3.8 ± 1.7 µM; in [11] (MDA-MB-435 (Melanoma)), 1.2 ± 1 µM; in test [12] (SUM149 (TNBC, BRCA Mutant)), 8.3 ± 4.9 µM. The IC50 in [13] (HCC1937 (TNBC, BRCA Mutant)) was 6.8 ± 1.3 µM; in test [14] (HCC1143 (TNBC)), 5 ± 1.7 µM; in [15] it was 10.3 ± 0.7 µM; in [16], 6 ± 3.2 µM; in test [17] (MDA-MB-468 (TNBC)) it was 2.1 ± 1.1 µM; in [18] (4T1 (TNBC)), 2 ± 0.6 µM. Also, the IC50 in test [19] stood at 1 ± 0.3 µM; in test [20] (SUM149 (TNBC, BRCA Mutant)), 5.3 ± 2.2 µM; in [21] (HCC1143 (TNBC)), 8.9 ± 3.2 µM; in [22] it was 5.1 ± 2 µM; in test [23], 2.7 ± 1.2 µM; in [24], 5.2 ± 0.6 µM.
